Assay results reported in patent publication US20100215653A1, “METHODS OF TREATING NEOPLASTIC, AUTOIMMUNE AND INFLAMMATORY DISEASES” (Seattle Genetics, Inc., priority 2006, published 2010).
“Also recorded” adds a separate entry of the source. Like-named read-outs stand apart in the source and are kept apart here.

Tests used:
HEL 92.1.7 cells = assay: Complement-dependent cytotoxicity (CDC) activity; assay type: cell-based, human; conditions: MDR+, CD33-positive HEL 92.1.7 cells (FIG. 4)
Description: The purpose of this study was to determine whether the cytotoxic effects of an anti-CD33 antibody (HuM195) on AML cells could be enhanced by combination treatment with chemotherapeutic drugs. An MDR^+, CD33-positive AML cell line (HEL 92.1.7) was either untreated or preincubated with the indicated concentrations of thalidomide or 5-azacytidine for two hours prior to exposure to the anti-CD33 Ab. Cytotoxic activity was measured using a complement-dependent cytotoxicity (CDC) activity.

[1] = system: primary human macrophages; assay: Macrophage migration in response to chemoattractants (CytoSelect Cell Migration Assay); assay type: cell-based
Description: (§1) The migration of macrophages in response to challenge with plating media containing 10% human serum, 20% conditioned tumor cell media, or 50 ng/ml TGF-β, VEGF, TNF-α, or IFN-γ was evaluated using the CytoSelect Cell Migration Assay (Cell Biolabs, San Diego, Calif.). […] The study was stopped 18 hours later and migration was evaluated after dissociation of the cells from the membrane followed by detection with Cyquant GR dye.
as §1, with “serum or” for “serum,”, “media” for “media, or 50 ng/ml TGF-β, VEGF, TNF-α, or IFN-γ”, “studies were” for “study was”, “h” for “hours”

HEL9217 cells = assay: HEL9217 disseminated MDR-positive AML model in SCID mice; assay type: in vivo
Text: (§2) The MDR-negative HL60 cell line and the MDR-positive HEL9217 and TF1-α cell lines were used. […] Disease symptoms typically developed between about 35 and about 80 days, and included hind limb paralysis, scruffy coat, weight loss, palpable tumors, and/or tumor masses in bone, peritoneal cavity, or soft tissues. Human CD33+ tumor cells were detected in the blood, bone marrow, and lymph nodes of the majority of the mice by flow cytometry (FIG. 25). Solid tumors associated with bone or soft tissues were found in 20 to 60% of the mice.

[2] = system: relapsed and refractory acute myeloid leukemia (AML); conditions: low dose, infrequent administration; cited from earlier work
[3] = system: AML tumor cells (KG-1 HEL9217, and TF1α); assay: ADCC, 51Cr release assay with NK effector cells; assay type: cell-based, human; conditions: MDR-positive and MDR-negative AML cells; effector to target ratio 10:1 (FIG. 27A)
Description: (§3) Target AML tumor cells (KG-1 HEL9217, and TF1α) were labeled with Na^51CrO4 and mixed with enriched CD16^+ effector (NK) cells, prepared using PBMCs from normal donors. The effector to target cell ratio was 10:1. […] Macrophages were labeled with CD11b−FITC or CD14-FITC antibody. Flow cytometric analyses of dual labeled (PKH67+CD11b+ or PKH67+CD14+) cells was used to determine specific uptake (phagocytosis). […] Media were collected 18 h later and analyzed by ELISA for IL-8 or MCP-1.
Viable NK cells were pre-treated for 2 to 3 h with lenalidomide or thalidomide (as described in FIG. 23) prior to addition to target cells.

AML tumor cells = assay: ADCP, phagocytosis by monocyte-derived macrophages (flow cytometry); assay type: cell-based, human; conditions: MDR-positive and MDR-negative AML cells (FIG. 27B)
Description: as §3

AML tumor cell lines = assay: IL-8 / MCP-1 production by AML tumor cell lines after TNF-α (ELISA); assay type: cell-based, human; conditions: 10 μg/ml SGN-33 before 1 ng/ml TNF-α; 18 h; p<0.05, p<0.01 (FIG. 27C)
Description: as §3

CD33 = CD33 (Homo sapiens, UniProt P20138); assay: Apparent Kd by saturation binding using flow cytometry; set-up: endogenous in cells; host or cells: HL60, KG-1, HEL9217, TF1-α
Description: As a preliminary step, the AML cell lines HL60, KG-1, HEL9217 and TF1-α were assessed for multi-drug resistance (MDR) status and CD33 copy number. MDR status was determined by flow cytometry assessment of Rhodamine (Rh123) efflux at 37° C. […] CD33 copy number was determined by qFACs (DAKO QifiKit) and apparent Kd values by saturation binding measurements using flow cytometry.

HL-60 cells = assay: HL-60 disseminated AML model in mice; assay type: in vivo
Description: Mice were implanted with an AML cell line, HL-60, as follows: 5 million HL-60 cells were injected intravenously. The mice were treated with lintuzumab (10 mg/kg, q4dx4, ip), cytarabine (1 mg/kg, 5 mg/kg or 25 mg/kg, q1dx10, ip; or 50 mg/kg or 100 mg/kg, q2dx5, ip) or lintuzumab with cytarabine (dosed as described previously). Treatment began on day one. Referring to FIG. 22, the control mice or mice treated with placebo (0.9% saline) were removed from the study by day 80, due to tumor progression.
To confirm the data of the in vitro study, mice were implanted with an AML cell line, HL-60, as follows: 5 million HL-60 cells were injected intravenously. […] Treatment began on day one. Referring to FIG. 24, the control mice were removed from the study by about day 60 due to tumor progression. Mice treated with lenalidomide were removed from study by about day 90 for similar reasons.
as §2

[4] = system: primary human CD14+ monocytes; assay: Cell viability (CelltiterGlo) of primary human CD14+ monocytes; assay type: cell-based; conditions: 48 hours of exposure to increasing concentrations (FIG. 13)
Description: Macrophages were harvested, counted, and cultured in 96-well plates at 35,000 cells per well. G-CSF-mobilized CD14^+ monocytes (Cambrex) were cultured in 96-well plates at 100,000 cells per well (adherent cells) in sterile polypropylene dishes (non-adherent cells).

TF1-α cells = assay: TF1-α disseminated MDR-positive AML model in SCID mice; assay type: in vivo
Text: as §2

human CD14+ monocytes = assay: Cytokine, chemokine and growth factor production by human CD14+ monocytes; assay type: cell-based
Description: Tissue culture media was harvested 18 h later for cytokine analyses by ELISA or Searchlight (Pierce Endogen, Rockville, Ill.).

CD33, sequence (P20138 18-364): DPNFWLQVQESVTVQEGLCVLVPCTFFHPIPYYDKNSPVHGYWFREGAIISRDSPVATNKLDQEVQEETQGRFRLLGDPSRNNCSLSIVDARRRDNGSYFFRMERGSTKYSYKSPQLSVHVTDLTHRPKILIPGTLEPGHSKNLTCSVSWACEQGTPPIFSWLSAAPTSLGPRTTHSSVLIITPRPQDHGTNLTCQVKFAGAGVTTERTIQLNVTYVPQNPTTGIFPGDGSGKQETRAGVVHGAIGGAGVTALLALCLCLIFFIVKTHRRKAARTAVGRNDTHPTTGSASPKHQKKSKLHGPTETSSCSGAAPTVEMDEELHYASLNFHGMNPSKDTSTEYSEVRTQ

Question: For “SGN-33: anti-CD33 antibody, a humanized version of mouse monoclonal antibody M195”, which “lysis of AML cells (CDC)” value (HEL 92.1.7 cells) is on record?
Answer: increased lysis of AML cell lines in a dose-dependent manner

Question: What about the macrophage migration ([1]; 10% human serum or 20% conditioned media from RPMI 8226 cells, p<0.05 (FIG. 21)) of the same substance?
Answer: significantly reduced the migration

Question: And the “blocking of migration of neuraminidase-treated macrophages” value ([1]; SGN-33 added to neuraminidase-treated macrophages, serum or tumor cell conditioned media (FIG. 14C))?
Answer: greater blocking effect

Question: What about the survival (HEL9217 cells; HEL9217 model, SCID mice, q4dx4, p<0.005 (FIG. 26)) of the same substance?
Answer: > 80 days

Question: What about the increase of survival (HEL9217 cells; MDR-positive HEL9217 model, 4 doses at 10 or 30 mg/kg, p<0.025) of the same substance?
Answer: greater than 40 days

Question: What about the “blast cells in patients” value [2] of the same substance?
Answer: induced significant reductions in blast cells

Question: What about the “ADCC activity (cell lysis)” value [3] of the same substance?
Answer: mediated antibody-dependent cell cytotoxity; also recorded: mediate cell lysis of MDR− and MDR+AML tumor cell lines

Question: And the “ADCP activity (phagocytosis)” value (AML tumor cells)?
Answer: antibody-dependent cell phagocytosis of MDR-positive and MDR-negative AML cells; also recorded: mediate phagocytosis of AML tumor cells

Question: And the “production of cytokines (IL-8 or MCP-1)” value (AML tumor cell lines)?
Answer: reduced cytokine production; also recorded: significantly reduced the production of cytokines

Question: And the Kd (CD33; read-out: Kd (pM) for SGN-33, HEL9217 cells (MDR positive))?
Answer: 144 ± 12 pM

Question: What about the Kd (CD33; read-out: Kd (pM) for SGN-33, HL60 cells (MDR negative)) of the same substance?
Answer: 123 ± 16 pM

Question: What about the Kd (CD33; read-out: Kd (pM) for SGN-33, KG-1 cells (MDR negative)) of the same substance?
Answer: 70 ± 20 pM

Question: And the Kd (CD33; read-out: Kd (pM) for SGN-33, TF1-α cells (MDR positive))?
Answer: 99 ± 22 pM

Question: And the survival (HL-60 cells; HL60 model, SCID mice, q4dx4, p<0.005 (FIG. 26))?
Answer: > 100 days

Question: What about the increase of survival (HL-60 cells; MDR-negative HL60 model, 3 to 30 mg/kg, p<0.0001) of the same substance?
Answer: > 100 days

Question: And the survival rate (HL-60 cells; SGN-33 30 mg/kg q4dx5 ip (FIG. 24))?
Answer: ~85%

Question: And the survival rate (HL-60 cells; SGN-33 3 or 10 mg/kg q4dx5 ip (FIG. 24))?
Answer: ~50%

Question: What about the “cell viability of monocytes” value [4] of the same substance?
Answer: not due to an adverse effect; also recorded: does not affect the viability

Question: What about the increase of survival (TF1-α cells; MDR-positive TF1-α model, 4 doses at 10 or 30 mg/kg, p<0.025) of the same substance?
Answer: greater than 40 days

Question: And the survival (TF1-α cells; TF1-α model, SCID mice, q4dx4, p<0.005 (FIG. 26))?
Answer: > 100 days

Question: What about the “basal and IFN-γ stimulated levels of IL-6, MCP-1, TNF-α, IL-8; IFN-γ stimulated level of RANTES” value (human CD14+ monocytes; adherent CD14+ monocytes, 48 h (FIG. 10)) of the same substance?
Answer: reduced the basal levels and IFN-γ stimulated levels

Question: What about the “basal and conditioned media stimulated levels of IL-6, MCP-1, IL-8; conditioned media stimulated level of RANTES” value (human CD14+ monocytes; adherent CD14+ monocytes, RPMI-8228 conditioned media (FIG. 11)) of the same substance?
Answer: reduced the basal levels and the RPMI-8228 conditioned media stimulated levels

Question: What about the “level of TNF-α” value (human CD14+ monocytes; adherent CD14+ monocytes, basal and RPMI-8228 conditioned media stimulated (FIG. 11)) of the same substance?
Answer: reduced the basal level, but not the RPMI-8228 conditioned media stimulated level

Question: And the “levels of IL-6, IL-8, TNF-α and MCP-1” value (human CD14+ monocytes; non-adherent CD14+ monocytes exposed to SGN-33 (FIG. 12))?
Answer: small increases

Question: What about the “production of cytokines, chemokines and growth factors” value (human CD14+ monocytes; non-adherent CD14+ monocytes, IFN-γ (FIG. 12)) of the same substance?
Answer: not inhibited by SGN-33, except for the basal level of RANTES

Question: What about the “IFN-γ-stimulated production of IL-1β, IL-10, IL-12 and MIP-1α” value (human CD14+ monocytes; primary human monocytes treated 1 hr before IFN-γ, 18 h, p<0.001 (FIG. 19)) of the same substance?
Answer: significantly reduced

Question: And the “levels of TNF-α” value (human CD14+ monocytes; primary human monocytes, various doses 1 hr before IFN-γ, 18 h, p<0.05 (FIG. 20))?
Answer: significantly reduced levels of TNF-α in a dose-dependent manner
